Assay results: PubChem BioAssay AID2060906 (Molecular Pharmacology Branch, DTP, NCI, 2025)

Tested on: 485176-168-R4-J1-PDC complex spheroid growth
Assay: Anticancer human tumor 485176-168-R4-J1-PDC patient-derived pancreatic adenocarcinoma cell line growth inhibition [RAS]
Conditions: for IC50: curve of first compound; for viability, T/C: stronger effect = lower value
How it was run: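 Tumour cells grown as complex spheroids with HUVEC endothelial cells and mesenchymal stem cells, treated with RAS pathway inhibitor combinations. Each agent spans half-log steps from near clinical Cmax, or 10 microM where Cmax is unknown.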
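Further: spheroids exposed to compounds for seven days before readout.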
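Wherever viability, T/C is given: luminescence viability expressed relative to DMSO vehicle wells set as 100%.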

## CC(C)n1nc(-c2ccc3oc(N)nc3c2)c2c(N)ncnc21 + C=CC(=O)N1CCN(c2nc(OCC3CCCN3C)nc3c(F)c(-c4nc(N)cc(C)c4C(F)(F)F)c(Cl)cc23)C(C)C1
Second compound 0.00316 µM
  IC50: 20.1 nM
Second compound 0.01 µM
  IC50: 27.2 nM
Second compound 0.0316 µM
  IC50: 16.6 nM
Second compound 0.1 µM
  IC50: 35.5 nM
Second compound 0.316 µM
  IC50: 21.5 nM
Second compound 1 µM
  IC50: 23.6 nM
Second compound 0.00316 µM, first compound 0.000316 µM
  viability, T/C: 97.2%
Second compound 0.00316 µM, first compound 0.001 µM
  viability, T/C: 92.6%
Second compound 0.00316 µM, first compound 0.00316 µM
  viability, T/C: 84.2%
Second compound 0.00316 µM, first compound 0.01 µM
  viability, T/C: 66.1%
Second compound 0.00316 µM, first compound 0.0316 µM
  viability, T/C: 39.3%
Second compound 0.00316 µM, first compound 0.1 µM
  viability, T/C: 27%
Second compound 0.01 µM, first compound 0.000316 µM
  viability, T/C: 81.8%
Second compound 0.01 µM, first compound 0.001 µM
  viability, T/C: 88.8%
Second compound 0.01 µM, first compound 0.00316 µM
  viability, T/C: 91.8%
Second compound 0.01 µM, first compound 0.01 µM
  viability, T/C: 67.5%
Second compound 0.01 µM, first compound 0.0316 µM
  viability, T/C: 48.6%
Second compound 0.01 µM, first compound 0.1 µM
  viability, T/C: 18.8%
Second compound 0.0316 µM, first compound 0.000316 µM
  viability, T/C: 89.9%
Second compound 0.0316 µM, first compound 0.001 µM
  viability, T/C: 90%
Second compound 0.0316 µM, first compound 0.00316 µM
  viability, T/C: 81.2%
Second compound 0.0316 µM, first compound 0.01 µM
  viability, T/C: 54.7%
Second compound 0.0316 µM, first compound 0.0316 µM
  viability, T/C: 42.3%
Second compound 0.0316 µM, first compound 0.1 µM
  viability, T/C: 23.8%
Second compound 0.1 µM, first compound 0.000316 µM
  viability, T/C: 109%
Second compound 0.1 µM, first compound 0.001 µM
  viability, T/C: 89.5%
Second compound 0.1 µM, first compound 0.00316 µM
  viability, T/C: 84.7%
Second compound 0.1 µM, first compound 0.01 µM
  viability, T/C: 74.5%
Second compound 0.1 µM, first compound 0.0316 µM
  viability, T/C: 56%
Second compound 0.1 µM, first compound 0.1 µM
  viability, T/C: 23.3%
Second compound 0.316 µM, first compound 0.000316 µM
  viability, T/C: 92%
Second compound 0.316 µM, first compound 0.001 µM
  viability, T/C: 78.3%
Second compound 0.316 µM, first compound 0.00316 µM
  viability, T/C: 85.7%
Second compound 0.316 µM, first compound 0.01 µM
  viability, T/C: 62.6%
Second compound 0.316 µM, first compound 0.0316 µM
  viability, T/C: 43.6%
Second compound 0.316 µM, first compound 0.1 µM
  viability, T/C: 30.1%
Second compound 1 µM, first compound 0.000316 µM
  viability, T/C: 81.1%
Second compound 1 µM, first compound 0.001 µM
  viability, T/C: 92.6%
Second compound 1 µM, first compound 0.00316 µM
  viability, T/C: 82%
Second compound 1 µM, first compound 0.01 µM
  viability, T/C: 72%
Second compound 1 µM, first compound 0.0316 µM
  viability, T/C: 42.5%
Second compound 1 µM, first compound 0.1 µM
  viability, T/C: 22.2%
